Measured values reported in patent US7332608B2, “Anthranilamides and methods of their use” (SANOFI-AVENTIS Deutschland GmbH, priority 2001, dated 2008).

These molecules were tested against T1, Human Kv1.5 channels (Homo sapiens, UniProt P22460) (assay: Kv1.5 currents in Xenopus oocytes, two-microelectrode voltage clamp). Settings: human Kv1.5 expressed in Xenopus laevis oocytes; voltage jumps 500 ms to 0 mV and 40 mV; room temperature; Hill equation.
T1 construct: expressed in transfected cells; host or cells: Xenopus laevis oocytes injected with in vitro synthesized Kv1.5-encoding RNA
T1 sequence (P22460 whole entry): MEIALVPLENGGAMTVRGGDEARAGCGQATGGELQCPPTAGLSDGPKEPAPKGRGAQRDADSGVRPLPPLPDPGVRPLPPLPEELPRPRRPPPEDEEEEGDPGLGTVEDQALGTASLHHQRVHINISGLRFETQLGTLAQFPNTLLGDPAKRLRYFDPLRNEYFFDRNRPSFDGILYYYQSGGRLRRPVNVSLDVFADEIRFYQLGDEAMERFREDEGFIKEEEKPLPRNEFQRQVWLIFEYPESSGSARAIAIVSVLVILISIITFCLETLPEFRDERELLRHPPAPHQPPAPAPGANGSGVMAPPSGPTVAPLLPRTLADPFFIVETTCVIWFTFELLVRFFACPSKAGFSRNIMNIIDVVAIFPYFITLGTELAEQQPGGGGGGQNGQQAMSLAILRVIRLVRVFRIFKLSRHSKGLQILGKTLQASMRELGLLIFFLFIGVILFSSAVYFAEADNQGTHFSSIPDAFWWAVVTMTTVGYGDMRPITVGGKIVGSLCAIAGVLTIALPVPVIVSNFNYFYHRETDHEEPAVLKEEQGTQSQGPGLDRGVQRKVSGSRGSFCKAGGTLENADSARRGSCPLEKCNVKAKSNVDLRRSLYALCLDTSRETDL
Format: cell-based
Method: Human Kv1.5 channels were expressed in Xenopus oocytes. For this purpose, firstly ooytes were isolated from Xenopus laevis and were defolliculated. Kv1.5-encoding RNA which had been synthesized in vitro was then injected into these oocytes. After 1-7 days of Kv1.5 protein expression, the Kv1.5 currents were measured on the oocytes by the two-microelectrode voltage clamp technique. The Kv1.5 channels were for this purpose usually activated with voltage jumps lasting 500 ms to 0 mV and 40 mV. A solution of the following composition flowed through the bath: NaCl 96 mM, KCl 2 mM, CaCl2 1.8 mM, MgCl2 1 mM, HEPES 5 mM (titrated to pH 7.4 with NaOH). These experiments were carried out at room temperature. The following were employed for data acquisition and analysis: geneclamp amplifier (Axon Instruments, Foster City, USA) and MacLab D/A converter and software (ADInstruments, Castle Hill, Australia). The compounds of the invention were tested by adding them in various concentrations to the bath solution. The effects of the compounds were calculated as percentage inhibition of the Kv1.5 control current which was obtained when no compound was added to the solution. The data were then extrapolated using the Hill equation in order to determine the inhibitory concentrations IC50 for the respective compounds.
`COc1ccc(NS(=O)(=O)c2ccc(C)cc2)c(C(=O)NC(C)Cc2ccccn2)c1` (stereo not shown) [Example 133] showed an IC50 of 1400 nM. In the case of `COc1ccc(S(=O)(=O)Nc2ccc(OC)cc2C(=O)NC(c2cccnc2)C2CC2)cc1` (stereo not shown) [Example 134], the IC50 is reported as 900 nM. In the case of `CCC(NC(=O)c1cc(OC)ccc1NS(=O)(=O)c1ccc(C)cc1)c1ccc(C)o1` (stereo not shown) [Example 135], the IC50 is reported as 1200 nM. With `CCCCS(=O)(=O)Nc1ccc(C)cc1C(=O)NC(CC)c1ccc(C)o1` (stereo not shown) [Example 136] the IC50 was 900 nM. In the case of `CCCCS(=O)(=O)Nc1ccc(C)cc1C(=O)NC(CC)Cc1cccnc1` (stereo not shown) [Example 138], the IC50 is reported as 1800 nM. With `CCC(NC(=O)c1cc(OC)ccc1NS(=O)(=O)c1ccc(C)cc1)c1ccc(OC)nc1` (stereo not shown) [Example 139] the IC50 was 1000 nM. `CCC(Cc1c[nH]c2ccccc12)NC(=O)c1cc(OC)ccc1NS(=O)(=O)c1ccc(C)cc1` (stereo not shown) [Example 140] showed an IC50 of 1400 nM. In the case of `CCC(NC(=O)c1cc(OC)ccc1NS(=O)(=O)c1ccc(C)cc1)c1ccc(C)nc1` (stereo not shown) [Example 141], the IC50 is reported as 1100 nM. With `CCC(Cc1ccccn1)NC(=O)c1cc(OC)ccc1NS(=O)(=O)c1ccc(C)cc1` (stereo not shown) [Example 142] the IC50 was 700 nM. `COc1ccc(NS(=O)(=O)c2ccc(C)cc2)c(C(=O)N[C@H]2CC[C@H](C)CC2)c1` [Example 143] was tested, and the IC50 was 3600 nM. `CCCCS(=O)(=O)Nc1ccc(C)cc1C(=O)NC(CC)c1cccnc1` (stereo not shown) [Example 144] showed an IC50 of 2800 nM. `CCC(NC(=O)c1ccccc1NS(=O)(=O)c1ccc(C)cc1)c1ccco1` (stereo not shown) [Example 145] gave an IC50 of 2600 nM. For `CCC(NC(=O)c1cc(C)ccc1NS(=O)(=O)C1CC1)c1ccc(C)o1` (stereo not shown) [Example 146], the IC50 was 2500 nM. For `CC[C@H](NC(=O)c1cc(OC)ccc1NS(=O)(=O)CC)c1ccccc1` [Example 147], the IC50 was 3800 nM. In the case of `CCCS(=O)(=O)Nc1ccc(OC)cc1C(=O)N[C@@H](CC)c1ccccc1` [Example 148], the IC50 is reported as 2100 nM. With `CC[C@H](NC(=O)c1cc(OC)ccc1NS(=O)(=O)C(C)C)c1ccccc1` [Example 149] the IC50 was 2200 nM. For `CC[C@H](NC(=O)c1cc(OC)ccc1NS(=O)(=O)c1ccc(OC)cc1)c1ccccc1` [Example 150], the IC50 was 300 nM. Molecule `CC[C@H](NC(=O)c1ccccc1NS(=O)(=O)c1ccc(OC)c(OC)c1)c1ccccc1` [Example 151] has an IC50 of 1500 nM. For `CC[C@H](NC(=O)c1cc(O)ccc1NS(=O)(=O)c1ccc(C)cc1)c1ccccc1` [Example 152, 5-Hydroxy-N-(1-phenylpropyl)-2-(toluene-4-sulfonylamino)benzamide], the IC50 was 2600 nM.
